Assay results from US9302999B2, “Substituted triazoles as herbicides” (E. I. DU PONT DE NEMOURS AND COMPANY, priority 2012, dated 2016).

What was measured:
Assay type in all cases: in vivo
[1] = test system: windgrass (Apera spica-venti); test: Test C postemergence: windgrass
Source text: At the same time, plants selected from these crop and weed species and also barley (winter barley, Hordeum vulgare), canarygrass (Phalaris minor), chickweed (common chickweed, Stellaria media) windgrass (Apera spica-venti) and deadnettle (henbit deadnettle, Lamium amplexicaule) were planted in pots containing Redi-Earth® planting medium (Scotts Company, 14111 Scottslawn Road, Marysville, Ohio 43041) comprising spaghnum peat moss, vermiculite, wetting agent and starter nutrients and treated with postemergence applications of test chemicals formulated in the same manner. Plants ranged in height from 2 to 18 cm (1- to 4-leaf stage) for postemergence treatments.
Treated plants and controls were maintained in a greenhouse for 13 to 15 days, after which time all species were compared to controls and visually evaluated. Plant response ratings, summarized in Table C, are based on a scale of 0 to 100 where 0 is no effect and 100 is complete control. A dash (-) response means no test result.

[2] = test system: field violet (Viola arvensis); test: Test D pre-/postemergence: field violet
Source text: (§1) Seeds of plant species selected from bluegrass (annual bluegrass, Poa annua), blackgrass (Alopecurus myosuroides), canarygrass (Phalaris minor), chickweed (common chickweed, Stellaria media), galium (catchweed bedstraw, Galium aparine), bromegrass, downy (downy bromegrass, Bromus tectorum), field poppy (Papaver rhoeas), field violet (Viola arvensis), foxtail, green (green foxtail, Setaria viridis), deadnettle (henbit deadnettle, Lamium amplexicaule), ryegrass, Italian (Italian ryegrass, Lolium multiflorum), kochia (Kochia scoparia), lambsquarters (Chenopodium album), oilseed rape (Brassica napus), pigweed (Amaranthus retroflexus), Russian thistle (Salsola iberica), chamomile (scentless chamomile, Matricaria inodora), speedwell (bird's-eye speedwell, Veronica persica), barley, spring (spring barley, Hordeum vulgare), wheat, spring (spring wheat, Triticum aestivum), buckwheat, wild (wild buckwheat, Polygonum convolvulus), mustard, wild (wild mustard, Sinapis arvensis), oat, wild (wild oat, Avena fatua), radish, wild (wild radish, Raphanus raphanistrum), windgrass (Apera spica-venti), barley, winter (winter barley, Hordeum vulgare), and wheat, winter (winter wheat, Triticum aestivum) were planted into a silt loam soil and treated preemergence with test chemicals formulated in a non-phytotoxic solvent mixture which included a surfactant. At the same time, these same crop and weed species were planted in pots containing the planting medium comprising spaghnum peat moss, vermiculite, wetting agent and starter nutrients and treated with postemergence applications of the test chemicals formulated in the same manner. Plants ranged in height from 2 to 18 cm (1- to 4-leaf stage).
(§2) Treated plants and controls were maintained in a controlled growth environment for 14 to 21 days after which time all species were compared to controls and visually evaluated. Plant response ratings, summarized in Table D, are based on a scale of 0 to 100 where 0 is no effect and 100 is complete control. A dash (-) response means no test result.

[3] = test system: barley, spring (spring barley, Hordeum vulgare); test: Test D pre-/postemergence: barley, spring
Source text: as §1, §2

[4] = test system: ducksalad (Heteranthera limosa); test: Test B flooded paddy: ducksalad; settings: Flood, applied to paddy water at 2-leaf stage, visually evaluated after 13 to 15 days
In short: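 Visual ratings (0 = no effect, 100 = complete control) versus untreated controls were taken 13–15 days after treatment of greenhouse plants. Treatment was added to paddy water held at 3 cm depth on 2-leaf-stage seedlings.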

[5] = test system: speedwell (bird's-eye speedwell, Veronica persica); test: Test D pre-/postemergence: speedwell; settings: Preemergence
Source text: as §1, §2

[6] = test system: wheat, spring (spring wheat, Triticum aestivum); test: Test D pre-/postemergence: wheat, spring
Source text: as §1, §2

[7] = test system: pigweed (Amaranthus retroflexus); test: Test D pre-/postemergence: pigweed
Source text: as §1, §2

kochia (Kochia scoparia) = test: Test D pre-/postemergence: kochia
Source text: as §1, §2

[8] = 31 g ai/ha, scale 0 to 100 (0 no effect, 100 complete control)
[9] = 62 g ai/ha, scale 0 to 100 (0 no effect, 100 complete control)
[10] = 125 g ai/ha, scale 0 to 100, 0 no effect, 100 complete control
[11] = Postemergence, 31 g ai/ha, scale 0 to 100 (0 no effect, 100 complete control)
[12] = Postemergence, 62 g ai/ha, scale 0 to 100 (0 no effect, 100 complete control)
[13] = Postemergence, 125 g ai/ha, scale 0 to 100, 0 no effect, 100 complete control
[14] = Postemergence, 16 g ai/ha, scale 0 to 100
[15] = Preemergence, 16 g ai/ha, scale 0 to 100 (0 no effect, 100 complete control)
[16] = Preemergence, 31 g ai/ha, scale 0 to 100 (0 no effect, 100 complete control)
[17] = Preemergence, 62 g ai/ha, scale 0 to 100
[18] = Preemergence, 125 g ai/ha, scale 0 to 100

Cc1nn(-c2ccc(C(F)(F)F)cc2)nc1Cc1ccnc(C(F)(F)F)c1 [Compound 47, 4-[[5-methyl-2-[4-(trifluoromethyl)phenyl]-2H-1,2,3-triazol-4-yl]methyl]-2-(trifluoromethyl)pyridine]
Plant response rating, Windgrass [1, 8]: 60 | Plant response rating, Windgrass [1, 9]: 80 | Plant response rating, Windgrass [1, 10]: 85 | Plant response rating, Windgrass ([1]; 250 g ai/ha, scale 0 to 100): 100

Cc1nn(-c2ccc(C(F)(F)F)cc2)nc1Cc1cccc(C(F)(F)F)c1 [Compound 124]
Plant response rating, Windgrass ([1]; 16 g ai/ha, scale 0 to 100, 0 no effect, 100 complete control): 50 | Plant response rating, Windgrass [1, 8]: 80 | Plant response rating, Windgrass [1, 9]: 95 | Plant response rating, Windgrass [1, 10]: 98

Cc1nn(-c2ccc(F)c(C(F)(F)F)c2)nc1Oc1ccnc(C(F)(F)F)c1 [Compound 147]
Plant response rating: Field Violet [2, 11]: 95 | Plant response rating: Field Violet [2, 12]: 100 | Plant response rating: Field Violet [2, 13]: 90 | Plant response rating, Field Violet [2, 14]: 95 | Plant response rating, Field Violet [2, 15]: 75 | Plant response rating, Field Violet [2, 16]: 100 | Plant response rating, Field Violet [2, 17]: 95 | Plant response rating, Field Violet [2, 18]: 100 | Plant response rating: Barley, Spring [3, 11]: 15 | Plant response rating: Barley, Spring [3, 12]: 20 | Plant response rating: Barley, Spring [3, 13]: 25 | Plant response rating, Barley, Spring [3, 14]: 15 | Plant response rating, Barley, Spring [3, 15]: 0 | Plant response rating, Barley, Spring [3, 16]: 0 | Plant response rating, Barley, Spring [3, 17]: 5 | Plant response rating, Barley, Spring [3, 18]: 10 | Plant response rating, Ducksalad (0 to 100 scale, 0 is no effect, 100 is complete control) ([4]; 250 g ai/ha): 40 | Plant response rating, Speedwell ([5]; 16 g ai/ha, scale 0 to 100 (0 no effect, 100 complete control)): 10 | Plant response rating, Speedwell [5, 8]: 20 | Plant response rating, Speedwell ([5]; 62 g ai/ha, scale 0 to 100): 100 | Plant response rating, Speedwell ([5]; 125 g ai/ha, scale 0 to 100): 100 | Plant response rating: Wheat, Spring [6, 11]: 15 | Plant response rating: Wheat, Spring [6, 12]: 20 | Plant response rating: Wheat, Spring [6, 13]: 25 | Plant response rating, Wheat, Spring [6, 14]: 10 | Plant response rating, Wheat, Spring [6, 15]: 0 | Plant response rating, Wheat, Spring [6, 16]: 0 | Plant response rating, Wheat, Spring [6, 17]: 0 | Plant response rating, Wheat, Spring [6, 18]: 5 | Plant response rating: Pigweed [7, 11]: 70 | Plant response rating: Pigweed [7, 12]: 85 | Plant response rating: Pigweed [7, 13]: 95 | Plant response rating, Pigweed [7, 14]: 75 | Plant response rating, Pigweed [7, 15]: 35 | Plant response rating, Pigweed [7, 16]: 75 | Plant response rating, Pigweed [7, 17]: 80 | Plant response rating, Pigweed [7, 18]: 100 | Plant response rating: Kochia (kochia (Kochia scoparia); [11]): 85 | Plant response rating: Kochia (kochia (Kochia scoparia); [12]): 90 | Plant response rating: Kochia (kochia (Kochia scoparia); [13]): 95 | Plant response rating, Kochia (kochia (Kochia scoparia); [14]): 70 | Plant response rating, Kochia (kochia (Kochia scoparia); [15]): 15 | Plant response rating, Kochia (kochia (Kochia scoparia); [16]): 15 | Plant response rating, Kochia (kochia (Kochia scoparia); [17]): 50 | Plant response rating, Kochia (kochia (Kochia scoparia); [18]): 70

CCCc1nn(-c2ccc(F)cc2)nc1Cc1ccnc(C(F)(F)F)c1 [Compound 153]
Plant response rating, Ducksalad (0 to 100 scale, 0 is no effect, 100 is complete control) ([4]; 250 g ai/ha): 90

Cc1nn(-c2ccc(C(F)(F)F)c(F)c2)nc1Cc1ccnc(C(F)(F)F)c1 [Compound 162]
Plant response rating, Ducksalad (0 to 100 scale, 0 is no effect, 100 is complete control) ([4]; 125 g ai/ha): 0

CCc1nn(-c2ccc(F)cc2)nc1Oc1ccnc(C(F)(F)F)c1 [Compound 166]
Plant response rating, Ducksalad (0 to 100 scale, 0 is no effect, 100 is complete control) ([4]; 125 g ai/ha): 70

CCCc1nn(-c2ccc(C(F)(F)F)c(F)c2)nc1Oc1ccnc(C(F)(F)F)c1 [Compound 185]
Plant response rating, Ducksalad (0 to 100 scale, 0 is no effect, 100 is complete control) ([4]; 250 g ai/ha): 65

CCOc1nn(-c2ccc(Br)cc2)nc1Cc1ccnc(C(F)(F)F)c1 [Compound 189]
Plant response rating, Ducksalad (0 to 100 scale, 0 is no effect, 100 is complete control) ([4]; 125 g ai/ha): 20
